For 36 compounds, EC50 results are on record in US8680139B2 (Progenra, priority 2009, dated 2014).

T1 sequence (Q93009 whole entry): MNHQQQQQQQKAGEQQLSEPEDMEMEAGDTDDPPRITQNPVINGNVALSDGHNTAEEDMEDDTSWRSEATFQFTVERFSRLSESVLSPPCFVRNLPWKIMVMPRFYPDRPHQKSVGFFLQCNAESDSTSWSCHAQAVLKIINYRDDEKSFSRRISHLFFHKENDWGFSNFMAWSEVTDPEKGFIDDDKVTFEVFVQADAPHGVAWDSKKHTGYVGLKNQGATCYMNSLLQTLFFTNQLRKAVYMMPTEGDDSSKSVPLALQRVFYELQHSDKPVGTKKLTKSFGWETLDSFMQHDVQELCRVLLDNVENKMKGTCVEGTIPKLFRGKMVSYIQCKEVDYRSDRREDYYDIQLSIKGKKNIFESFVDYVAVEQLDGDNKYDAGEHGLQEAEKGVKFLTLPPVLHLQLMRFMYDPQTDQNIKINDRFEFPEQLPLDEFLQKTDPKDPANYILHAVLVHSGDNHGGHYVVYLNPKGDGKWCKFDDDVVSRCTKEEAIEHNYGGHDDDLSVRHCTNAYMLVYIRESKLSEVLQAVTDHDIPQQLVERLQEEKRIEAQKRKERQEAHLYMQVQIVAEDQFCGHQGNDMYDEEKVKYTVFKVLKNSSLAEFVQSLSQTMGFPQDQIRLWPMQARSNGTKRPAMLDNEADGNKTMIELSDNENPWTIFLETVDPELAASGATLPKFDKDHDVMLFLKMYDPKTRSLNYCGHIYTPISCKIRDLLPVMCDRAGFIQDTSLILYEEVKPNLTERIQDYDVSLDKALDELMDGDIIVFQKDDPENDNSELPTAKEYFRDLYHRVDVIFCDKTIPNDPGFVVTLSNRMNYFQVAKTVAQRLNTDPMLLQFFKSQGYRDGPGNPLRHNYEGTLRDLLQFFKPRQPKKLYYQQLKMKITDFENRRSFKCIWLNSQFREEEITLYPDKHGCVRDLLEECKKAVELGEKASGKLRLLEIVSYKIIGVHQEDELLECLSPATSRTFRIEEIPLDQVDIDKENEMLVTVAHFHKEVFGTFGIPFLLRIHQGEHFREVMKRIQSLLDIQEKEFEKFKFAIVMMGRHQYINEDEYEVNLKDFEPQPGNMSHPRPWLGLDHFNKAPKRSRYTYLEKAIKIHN

This assay addresses T1, USP7 (Homo sapiens, UniProt Q93009).
T1 construct: full length human USP7 protein; made in house
The assay can be described thus: USP7, Ub-PLA2 assay. Format: biochemical. The settings on record: Ub-PLA2 / NBD C6-HPC fluorescence, 30 minute preincubation; read-out: EC50 for inhibition of USP7. The method, then: The purpose of this assay is to measure the inhibition of USP7 by various compounds of the invention synthesized according to the above-described methods. […] The vehicle control was 100% (v/v) DMSO. 1.6 μL aliquots of the diluted test compound and controls were dispensed into individual wells in a black walled 96 well plate. […] The data were normalized within a plate relative to the control wells using the equation % inhibition=(100−(((RFUcompound−RFUmean NEM) / (RFUmean DMSO−RFUmean NEM))×100)).
In general, EC50 refers to the concentration that produces a half-maximal response. As for `COc1ccc(NC(=O)c2cc([N+](=O)[O-])c(Sc3c(Cl)cncc3Cl)s2)c(C)c1` [Example 132, 5-((3,5-dichloropyridin-4-yl)thio)-N-(4-methoxy-2-methylphenyl)-4-nitrothiophene-2-carboxamide], the EC50 is not above 1000 nM.
For `COC(=O)c1cc([N+](=O)[O-])c(Oc2c(Cl)cncc2Cl)s1` [Example 258, Methyl 5-((3,5-dichloropyridin-4-yl)oxy)-4-nitrothiophene-2-carboxylate] the value was 1000 to 10000 nM; for `CC(=O)c1cc([N+](=O)[O-])c(Sc2ccccc2C(F)(F)F)s1` [Example 4, 1-{4-Nitro-5-[2-(trifluoromethyl)phenylsulfanyl]-2-thienyl}ethanone], 1000 to 10000 nM; for `O=C(Nc1ccc(F)cc1F)c1cc([N+](=O)[O-])c(Sc2c(Cl)cncc2Cl)s1` [Example 143, 5-((3,5-dichloropyridin-4-yl)thio)-N-(2,4-difluorophenyl)-4-nitrothiophene-2-carboxamide], not above 1000 nM.
The result for `Cc1csc(NC(=O)c2cc([N+](=O)[O-])c(Sc3c(Cl)cncc3Cl)s2)n1` [Example 87, 5-((3,5-dichloropyridin-4-yl)thio)-N-(4-methylthiazol-2-yl)-4-nitrothiophene-2-carboxamide] reads 1000 to 10000 nM; that for `CN(C)CCC(NC(=O)c1cc([N+](=O)[O-])c(Sc2nc3ccccc3s2)s1)c1ccccc1` (stereo not drawn) [Example 254, 5-(benzo[d]thiazol-2-ylthio)-N-(3-(dimethylamino)-1-phenylpropyl)-4-nitrothiophene-2-carboxamide], 1000 to 10000 nM; that for `CN1CCC(NS(=O)(=O)c2cc([N+](=O)[O-])c(Sc3c(Cl)cncc3Cl)s2)CC1` [Example 246, 5-((3,5-dichloropyridin-4-yl)thio)-N-(1-methylpiperidin-4-yl)-4-nitrothiophene-2-sulfonamide], 1000 to 10000 nM.
For `O=C(NC1CCCCC1)c1cc([N+](=O)[O-])c(Sc2c(Cl)cncc2Cl)s1` [Example 154, N-cyclohexyl-5-((3,5-dichloropyridin-4-yl)thio)-4-nitrothiophene-2-carboxamide] the value was not above 1000 nM; for `CC(C)(C)OC(=O)CNC(=O)c1cc([N+](=O)[O-])c(Sc2c(Cl)cncc2Cl)s1` [Example 62, tert-butyl 2-(5-((3,5-dichloropyridin-4-yl)thio)-4-nitrothiophene-2-carboxamido)acetate], 1000 to 10000 nM.
As for `NC(=O)c1cc([N+](=O)[O-])c(Sc2c(Cl)cncc2Cl)s1` [Example 46, 5-[(3,5-dichloro-4-pyridyl)sulfanyl]-4-nitro-thiophene-2-carboxamide], the EC50 was 1000 to 10000 nM.
Consider `CC(O)c1cc([N+](=O)[O-])c(Sc2ccc(Cl)cc2Cl)s1` (stereo not drawn) [Example 26, 1-[5-(2,4-dichlorophenyl)sulfanyl-4-nitro-2-thienyl]ethanol], for which the EC50 was more than 10000 nM.
Take `CN1CCN(C(=O)c2cc([N+](=O)[O-])c(Sc3c(Cl)cncc3Cl)s2)CC1` [Example 66, (5-((3,5-dichloropyridin-4-yl)thio)-4-nitrothiophen-2-yl)(4-methylpiperazin-1-yl)methanone]: the EC50 is 1000 to 10000 nM.
The result for `O=C(NCCC1CCN(Cc2ccccc2)C1)c1cc([N+](=O)[O-])c(Sc2c(Cl)cncc2Cl)s1` (stereo not drawn) [Example 84, N-(2-(1-benzylpyrrolidin-3-yl)ethyl)-5-((3,5-dichloropyridin-4-yl)thio)-4-nitrothiophene-2-carboxamide] reads more than 10000 nM.
For `COCCCNC(=O)CNC(=O)c1cc([N+](=O)[O-])c(Sc2c(Cl)cncc2Cl)s1` [Example 213, 5-((3,5-dichloropyridin-4-yl)thio)-N-(2-((3-methoxypropyl)amino)-2-oxoethyl)-4-nitrothiophene-2-carboxamide] the value was 1000 to 10000 nM.
With `O=C(NCCCN1CCC(F)CC1)c1cc([N+](=O)[O-])c(Sc2c(Cl)cncc2Cl)s1` [Example 228, 5-((3,5-dichloropyridin-4-yl)thio)-N-(3-(4-fluoropiperidin-1-yl)propyl)-4-nitrothiophene-2-carboxamide], the 50% effective concentration (EC50) is 1000 to 10000 nM.
As to `COC(=O)c1cc([N+](=O)[O-])c(Sc2nc3nc(C)cc(C)n3n2)s1` [Example 266, Methyl 5-((5,7-dimethyl-[1,2,4]triazolo[1,5-a]pyrimidin-2-yl)thio)-4-nitrothiophene-2-carboxylate], the EC50 is more than 10000 nM.
For `CN1CCC(NC(=O)c2cc([N+](=O)[O-])c(Sc3c(F)cncc3F)s2)CC1` [Example 256, 5-((3,5-difluoropyridin-4-yl)thio)-N-(1-methylpiperidin-4-yl)-4-nitrothiophene-2-carboxamide] the value was 1000 to 10000 nM.
For the compound `CN(C)CCCOc1ccc(NC(=O)c2cc(C#N)c(Sc3c(Cl)cncc3Cl)s2)cc1` [Example 204], the half-maximal effective concentration (EC50) is 1000 to 10000 nM.
Regarding `CN(C)CCCOc1ccc(NC(=O)c2cc([N+](=O)[O-])c(Sc3c(F)cncc3F)s2)cc1` [Example 257, 5-((3,5-difluoropyridin-4-yl)thio)-N-(4-(3-(dimethylamino)propoxy)phenyl)-4-nitrothiophene-2-carboxamide], the 50% effective concentration (EC50) was 1000 to 10000 nM.
In the case of `O=C(NCc1ccc2c(c1)CCO2)c1cc([N+](=O)[O-])c(Sc2c(Cl)cncc2Cl)s1` [Example 70, 5-((3,5-dichloropyridin-4-yl)thio)-N-((2,3-dihydrobenzofuran-5-yl)methyl)-4-nitrothiophene-2-carboxamide], the concentration giving a half-maximal response (EC50) was 1000 to 10000 nM.
For `O=C(NCCOc1ccccc1)c1cc([N+](=O)[O-])c(Sc2c(Cl)cncc2Cl)s1` [Example 54, 5-((3,5-dichloropyridin-4-yl)thio)-4-nitro-N-(2-phenoxyethyl)thiophene-2-carboxamide] the value was 1000 to 10000 nM.
In the case of `O=C(NCC(=O)N1CCCC(O)C1)c1cc([N+](=O)[O-])c(Sc2c(Cl)cncc2Cl)s1` (stereo not drawn) [Example 212, 5-((3,5-dichloropyridin-4-yl)thio)-N-(2-(3-hydroxypiperidin-1-yl)-2-oxoethyl)-4-nitrothiophene-2-carboxamide], the EC50 lay in the range of 1000 to 10000 nM.
For `NC(=O)C1CCN(CCCNC(=O)c2cc([N+](=O)[O-])c(Sc3c(Cl)cncc3Cl)s2)CC1` [Example 226, 1-(3-(5-((3,5-dichloropyridin-4-yl)thio)-4-nitrothiophene-2-carboxamido)propyl)piperidine-4-carboxamide] the value was not above 1000 nM.
For `O=C(Nc1cccc(Cl)c1)c1cc([N+](=O)[O-])c(Sc2c(Cl)cncc2Cl)s1` [Example 142, N-(3-chlorophenyl)-5-((3,5-dichloropyridin-4-yl)thio)-4-nitrothiophene-2-carboxamide] the value was not above 1000 nM; for `N#Cc1cc(C(=O)Nc2cnc3ccccc3c2)sc1Sc1c(Cl)cncc1Cl` [Example 207, 4-cyano-5-((3,5-dichloropyridin-4-yl)thio)-N-(quinolin-3-yl)thiophene-2-carboxamide], 1000 to 10000 nM; for `CC(=O)N1CCC(NC(=O)c2cc([N+](=O)[O-])c(Sc3c(Cl)cncc3Cl)s2)C1` (stereo not drawn) [Example 199, N-(1-acetylpyrrolidin-3-yl)-5-((3,5-dichloropyridin-4-yl)thio)-4-nitrothiophene-2-carboxamide], 1000 to 10000 nM.
For `CC(C)CCNC(=O)c1cc([N+](=O)[O-])c(Sc2c(Cl)cncc2Cl)s1` [Example 110, 5-((3,5-dichloropyridin-4-yl)thio)-N-isopentyl-4-nitrothiophene-2-carboxamide] the value was not above 1000 nM.
For the compound `COc1cc(NC(=O)c2cc([N+](=O)[O-])c(Sc3c(Cl)cncc3Cl)s2)ccc1OCCCN(C)C` [Example 240, 5-((3,5-dichloropyridin-4-yl)thio)-N-(4-(3-(dimethylamino)propoxy)-3-methoxyphenyl)-4-nitrothiophene-2-carboxamide], the half-maximal effective concentration (EC50) is not above 1000 nM.
The result for `CC(=O)c1cc([N+](=O)[O-])c(Sc2c(Cl)c[n+]([O-])cc2Cl)s1` [Example 18, 1-[5-(3,5-dichloro-1-oxido-pyridin-1-ium-4-yl)sulfanyl-4-nitro-2-thienyl]ethanone] reads 1000 to 10000 nM.
For `CC(C)(C)NC(=O)c1cc([N+](=O)[O-])c(Sc2c(Cl)cncc2Cl)s1` [Example 153, N-(tert-butyl)-5-((3,5-dichloropyridin-4-yl)thio)-4-nitrothiophene-2-carboxamide] the value was not above 1000 nM; for `CSc1cccc(CN(C)C(=O)c2cc([N+](=O)[O-])c(Sc3c(Cl)cncc3Cl)s2)c1` [Example 127, 5-((3,5-dichloropyridin-4-yl)thio)-N-methyl-N-(3-(methylthio)benzyl)-4-nitrothiophene-2-carboxamide], not above 1000 nM; for `O=C(NCc1ccc(OC(F)(F)F)cc1)c1cc([N+](=O)[O-])c(Sc2c(Cl)cncc2Cl)s1` [Example 114, 5-((3,5-dichloropyridin-4-yl)thio)-4-nitro-N-(4-(trifluoromethoxy)benzyl)thiophene-2-carboxamide], not above 1000 nM.
The result for `CC(C)N1CCC(NC(=O)c2cc([N+](=O)[O-])c(Sc3nc4ccccc4s3)s2)CC1` [Example 253, 5-(benzo[d]thiazol-2-ylthio)-N-(1-isopropylpiperidin-4-yl)-4-nitrothiophene-2-carboxamide] reads 1000 to 10000 nM.
Turning to `COC(=O)c1cc([N+](=O)[O-])c(Sc2c(F)cncc2F)s1` [Example 255, Methyl 5-((3,5-difluoropyridin-4-yl)thio)-4-nitrothiophene-2-carboxylate], the EC50 lay in the range of 1000 to 10000 nM.
Consider `CC(=O)c1cc([N+](=O)[O-])c([S+]([O-])c2ccc(Cl)cc2Cl)s1` (stereo not drawn) [Example 34, 1-[5-(2,4-dichlorophenyl)sulfinyl-4-nitro-2-thienyl]ethanone], for which the 50% effective concentration (EC50) was more than 10000 nM.
The result for `COC(=O)c1ccc(CNC(=O)c2cc([N+](=O)[O-])c(Sc3c(Cl)cncc3Cl)s2)cc1` [Example 163, methyl 4-((5-((3,5-dichloropyridin-4-yl)thio)-4-nitrothiophene-2-carboxamido)methyl)benzoate] reads not above 1000 nM.
